Drawing on EP4582426A1, “PAN-KRAS INHIBITOR COMPOUND” (Adlai Nortye Biopharma Co., Ltd., priority 2022, dated 2024), this text covers IC50 for 14 molecules.

Assay [1] relates to AsPC-1 (G12D). Kind of assay: In vitro cell proliferation inhibition test (CellTiter-Glo Luminescent Cell Viability Assay). Type of assay: cell-based. The note with it: AsPC-1 cell line, Pancreas, KRAS (p.G12D), cells and compounds co-incubated 72 hours. The text has this: (§1) Due to the diversity of RAS mutations and in order to evaluate the activity of compounds in different RAS mutant cell lines, we selected KRAS^WT, KRAS^G12C, KRAS^G12D), KRAS^G12V and BRAF mutant cell lines (see the table below) for in vitro activity evaluation and screening of compounds .
(§2) Experimental protocol: CellTiter-Glo® Cell Luminescent Viability Assay (Promega)
(§3) According to the doubling time of different cell lines, different numbers of cells (1000-5000 cells/well) were inoculated into 96-well plates containing 180 µl of the corresponding medium, and cultured overnight in a 37°C cell incubator containing 5% CO2. On the second day, the compound to be tested was pre-diluted 3-fold with the medium, the highest concentration was 100 µM, and there were 10 concentration gradients in total; then 20 µl of the medium containing different concentrations of the compound was added to the cells in the 96-well plate to ensure the final concentration of the compound to be up to 10 µM, with 10 concentration gradients of 3-fold dilutions. After co-incubating cells and compounds for 72 hours, the 96-well plate was taken out of the incubator, placed at room temperature for 30 minutes, and then 25 µl CellTiter-Glo® Reagent was added to each well to mix well, and incubated at room temperature for 10 minutes, and then 100 µl of the sample was transferred to a white 96-well plate (OptiPlateTM-96, PerkinElmer), the […] signal value was read using a multi-functional microplate reader (SpectraMax® i3x, Molecular devices). Subsequently, the signal value was standardized, and the four-parameter fitting regression equation was used for curve fitting to calculate the half maximal inhibitory concentration (IC50) of the compound on the cell line. Table 3: Antiproliferative activity of compounds of the present invention on KRAS cell mutants
In general terms: In ATP-based viability assays light output follows the ATP content of the culture.

Assay [2] relates to SW480 (G12V). Described as above. Conditions: SW480 cell line, Large intestine, Colon, KRAS (p.G12V), cells and compounds co-incubated 72 hours. In kind it is cell-based.
Description: as §1, §2, §3

On to `CCn1c(-c2cc(C#C[C@@H]3COCCN3C)cnc2[C@H](C)OC)c2c3cc(ccc31)-c1csc(n1)C[C@H](NC(=O)[C@H]1C[C@@H]1C)C(=O)N1CCC[C@H](N1)C(=O)OCC(C)(C)C2` [Example 7, (1S,2S)-N-((63S,4S,Z)-11-ethyl-12-(2-((S)-1-methoxyethyl)-5-(((R)-4-methylmorpholin-3-yl)ethynyl)pyridin-3-yl)-10,10-dimethyl-5,7-dioxo-61,62,63,64,65,66-hexahydro-11H-8-oxa-2(4,2)-Thiazola-1(5,3)-indola-6(1,3)-pyridazinacyclonecaphane-4-yl)-2-methylcyclopropane-1-carboxamide], for which the IC50 (commonly the point on the concentration scale where inhibition reaches its midpoint) in assay [1] was found to be 5.1 nM; in assay [1] (listed as 7'), 2640 nM; in assay [2], 4.6 nM; in assay [2] (listed as 7'), 830 nM.

With “(1S,2S)-N-((6^3S,4S,Z)-1^1-ethyl-1^2-(5-(((R)-4-(2-hydroxyethyl)morpholin-3-yl)ethynyl)-2-((S)-1-methoxyethyl)pyridin-3-yl)-10,10-dimethyl-5,7-dioxo-6^1,6^2,6^3,6^4,6^5,6^6-hexahydro-1^1H-8-oxa-2(4,2)-thiazola-1(5,3)-indola-6(1,3)-pyridazinacycloundecaphane-4-yl)-2-methylcyclopropane-1-carboxamide [Example 33]”, the values for the IC50 in assay [1] and in assay [2] were 2.9 nM and 6.5 nM, respectively.

In the case of `CCn1c(-c2cc(C#CC3CCCN3C)cnc2C(C)OC)c2c3cc(ccc31)-c1csc(n1)CC(NC(=O)C1C(C)C1C)C(=O)N1CCCC(N1)C(=O)OCC(C)(C)C2` [Example 11, (1r,2R,3S)-N-((63S,4S,Z)-11-ethyl-12-(2-((S)-1-methoxyethyl)-5-(((S)-1-methylpyrrolidin-2-yl)ethynyl)pyridin-3-yl)-10,10-dimethyl-5,7-dioxo-61,62,63,64,65,66-hexahydro-11H-8-oxa-2(4,2)-thiazola-1(5,3)-indola-6(1,3)-pyridazinacyclonecaphane-4-yl)-2,3-dimethylcyclopropane-1-carboxamide], in assay [1], the IC50 was 1.7 nM.

In the case of “(1S,2S)-N-((6^3S,4S,Z)-1^1-ethyl-1^2-(2-((S)-1-methoxyethyl)-5-(pyrimidin-5-ylethynyl)pyridin-3-yl)-10,10-dimethyl-5,7-dioxo-6^1,6^2,6^3,6^4,6^5,6^6-hexahydro-1^1H-8-oxa-2(4,2)-thiazola-1(5,3)-indola-6(1,3)-pyridazinacycloundecaphane-4-yl)-2-methylcyclopropane-1-carboxamide [Example 22]”, the results for the IC50 in assay [1] and in assay [2] were 6.5 nM and 19.2 nM, respectively.

On to `CCn1c(-c2cc(C#Cc3cnc(N)cn3)cnc2[C@H](C)OC)c2c3cc(ccc31)-c1csc(n1)C[C@H](NC(=O)[C@H]1C[C@@H]1C)C(=O)N1CCC[C@H](N1)C(=O)OCC(C)(C)C2` [Example 35, (1S,2S)-N-((6^3S,4S,Z)-1^2-(5-((5-aminopyrazin-2-yl)ethynyl)-2-((S)-1-methoxyethyl)pyridin-3-yl)-1^1-ethyl-10,10-dimethyl-5,7-dioxo-6^1,6^2,6^3,6^4,6^5,6^6-hexahydro-1^1H-8-oxa-2(4,2)-thiazola-1(5,3)-indola-6(1,3)-pyridazinacycloundecaphane-4-yl)-2-methylcyclopropane-1-carboxamide], for which the IC50 worked out at 56 nM in assay [1] (Homo sapiens, ASPC1) and 37 nM in assay [2] (Homo sapiens).

Take “(1S,2S)-N-((6^3S,4S,Z)-1^2-(5-(3-(dimethylamino)prop-1-yn-1-yl)-2-((S)-1-methoxyethyl)pyridin-3-yl)-1^1-ethyl-10,10-dimethyl-5,7-dioxo-6^1,6^2,6^3,6^4,6^5,6^6-hexahydro-1^1H-8-oxa-2(4,2)-thiazola-1(5,3)-indola-6(1,3)-pyridazinacycloundecaphane-4-yl)-2-methylcyclopropane-1-carboxamide [Example 61]”: the IC50 was determined as 5 nM in assay [1] and 1.58 nM in assay [2].

Take “(1S,2S)-N-((6^3S,4S,Z)-1^1-ethyl-1^2-(5-((2-(ethylamino)pyrimidin-5-yl)ethynyl)-2-((S)-1-methoxyethyl)pyridin-3-yl)-10,10-dimethyl-5,7-dioxo-6^1,6^2,6^3,6^4,6^5,6^6-hexahydro-1^1H-8-oxa-2(4,2)-thiazola-1(5,3)-indola-6(1,3)-pyridazinacycloundecaphane-4-yl)-2-methylcyclopropane-1-carboxamide [Example 42]”: the figures for the IC50 in assay [1] and in assay [2] were 22.2 nM and 6.9 nM, respectively.

On to `CCn1c(-c2cc(C#CC3CN(C)CCS3(=N)=O)cnc2C(C)OC)c2c3cc(ccc31)-c1csc(n1)CC(NC(=O)C1CC1C)C(=O)N1CCCC(N1)C(=O)OCC(C)(C)C2` [Example 51, (1S,2S)-N-((6^3S,4S,Z)-1^1-ethyl-1^2-(5-(((2S)-1-imino-4-methyl-1-oxido-1λ^6-thiomorpholin-2-yl)ethynyl)-2-((S)-1-methoxyethyl)pyridin-3-yl)-10,10-dimethyl-5,7-dioxo-6^1,6^2,6^3,6^4,6^5,6^6-hexahydro-1^1H-8-oxa-2(4,2)-thiazola-1(5,3)-indola-6(1,3)-pyridazinacycloundecaphane-4-yl)-2-methylcyclopropane-1-carboxamide], for which the IC50 in assay [1] is 4.5 nM; in assay [2], 5.4 nM.

In the case of `CCn1c(-c2cc(C#Cc3cccc4ccn(C)c34)cnc2[C@H](C)OC)c2c3cc(ccc31)-c1csc(n1)C[C@H](NC(=O)[C@H]1C[C@@H]1C)C(=O)N1CCC[C@H](N1)C(=O)OCC(C)(C)C2` [Example 47, (1S,2S)-N-((6^3S,4S,Z)-1^1-ethyl-1^2-(2-((S)-1-methoxyethyl)-5-((1-methyl-1H-indol-7-yl)ethynyl)pyridin-3-yl)-10,10-dimethyl-5,7-dioxo-6^1,6^2,6^3,6^4,6^5,6^6-hexahydro-1^1H-8-oxa-2(4,2)-thiazola-1(5,3)-indola-6(1,3)-pyridazinacycloundecaphane-4-yl)-2-methylcyclopropane-1-carboxamide], the IC50 in assay [1] (Homo sapiens, ASPC1) was found to be 456 nM; in assay [2] (Homo sapiens), 116 nM.

For `CCn1c(-c2cc(C#CCN3CCOC(CO)C3)cnc2C(C)OC)c2c3cc(ccc31)-c1csc(n1)CC(NC(=O)C1CC1C)C(=O)N1CCCC(N1)C(=O)OCC(C)(C)C2` (single isomer, unassigned) [Example 20], the half-maximal inhibitory concentration (IC50) in assay [1] amounted to 2.4 nM; in assay [2], 8.9 nM.

Consider `CCn1c(-c2cc(C#CCN3CCCCC3)cnc2[C@H](C)OC)c2c3cc(ccc31)-c1csc(n1)C[C@H](NC(=O)[C@H]1C[C@@H]1C)C(=O)N1CCC[C@H](N1)C(=O)OCC(C)(C)C2` [Example 59, (1S,2S)-N-((6^3S,4S,Z)-1^1-ethyl-1^2-(2-((S)-1-methoxyethyl)-5-(3-(piperidin-1-yl)prop-1-yn-1-yl)pyridin-3-yl)-10,10-dimethyl-5,7-dioxo-6^1,6^2,6^3,6^4,6^5,6^6-hexahydro-1^1H-8-oxa-2(4,2)-thiazola-1(5,3)-indola-6(1,3)-pyridazinacycloundecaphane-4-yl)-2-methylcyclopropane-1-carboxamide], for which the results for the IC50 in assay [1] and in assay [2] were 0.96 nM and 1.76 nM, respectively.

For “(1r,2R,3S)-N-((6^3S,4S,Z)-1^1-ethyl-1^2-(5-(3-((R)-3-(hydroxymethyl)morpholino)prop-1-yn-1-yl)-2-((S)-1-methoxyethyl)pyridin-3-yl)-10,10-dimethyl-5,7-dioxo-6^1,6^2,6^3,6^4,6^5,6^6-hexahydro-1^1H-8-oxa-2(4,2)-thiazola-1(5,3)-indola-6(1,3)-pyridazinacycloundecaphane-4-yl)-2,3-dimethylcyclopropane-1-carboxamide [Example 38]”, the IC50 amounted to 0.07 nM in assay [1] and 0.18 nM in assay [2].

On to `CCn1c(-c2cc(C#CCN3CCN(C)CC3)cnc2[C@H](C)OC)c2c3cc(ccc31)-c1csc(n1)C[C@H](NC(=O)[C@H]1C[C@@H]1C)C(=O)N1CCC[C@H](N1)C(=O)OCC(C)(C)C2` [Example 60, (1S,2S)-N-((6^3S,4S,Z)-1^1-ethyl-1^2-(2-((S)-1-methoxyethyl)-5-(3-(4-methylpiperazin-1-yl)prop-1-yn-1-yl)pyridin-3-yl)-10,10-dimethyl-5,7-dioxo-6^1,6^2,6^3,6^4,6^5,6^6-hexahydro-1^1H-8-oxa-2(4,2)-thiazola-1(5,3)-indola-6(1,3)-pyridazinacycloundecaphane-4-yl)-2-methylcyclopropane-1-carboxamide], for which the results for the IC50 in assay [1] and in assay [2] were 1.71 nM and 1.55 nM, respectively.

Regarding `CCn1c(-c2cc(C#CC3CN(C)CCO3)cnc2C(C)OC)c2c3cc(ccc31)-c1csc(n1)CC(NC(=O)C1CC1C)C(=O)N1CCCC(N1)C(=O)OCC(C)(C)C2` (single isomer, unassigned) [Example 6], the IC50 in assay [1] was determined as 14 nM; in assay [1] (listed as 6'), 3960 nM; in assay [2], 18.5 nM; in assay [2] (listed as 6'), 1830 nM.
